Molecules are shown by their SMILES.

This assay deals with Protein arginine N-methyltransferase 5 (Homo sapiens, UniProt O14744). Description: Biochemical Assay. As for the experimental part: Compounds were solubilized in DMSO and serially diluted, using 3-fold dilutions, into 100% DMSO at a concentration 50-fold greater than the desired assay concentration. Following dilution, 1 ul was added to an empty 96-well microtiter plate. PRMT5/MEP50 protein complex was combined with H4(1-21) peptide ([…]) in PRMT5 assay buffer (50 mM Tris pH 8.5, 50 mM NaCl, 5 mM MgCl2, 1 mM EDTA, 1 mM TCEP) and 44 ul was added to the microtiter plate containing compound. S-Adenosyl-L-methionine (SAM) was prepared by combining 3H labelled SAM with unlabelled SAM in PRMT5 assay buffer such that the final SAM concentration was 10 uM and the specific activity was 0.2 uCi/ul. The reaction was initiated by adding 5 ul of SAM stock to the microtiter plate. The final reaction conditions were 10 nM PRMT5/MEP50 complex, 200 nM peptide and 1 uM SAM. Following a 25 minute incubation at room temperature, the reaction was stopped with the addition of 100 uL of 20% TCA. The 3H-peptide product was captured using a 96-well filter plate (MSIPN4B, Millipore) and washed 5 times with PBS buffer. Scintillation fluid (100 ul) was added to the dried filter plate and counted in a liquid scintillation counter. IC50 values were determined by fitting the data to the standard 4-parameter dose response equation using Pfizer proprietary software.
Sequence of Protein arginine N-methyltransferase 5 (O14744 whole entry): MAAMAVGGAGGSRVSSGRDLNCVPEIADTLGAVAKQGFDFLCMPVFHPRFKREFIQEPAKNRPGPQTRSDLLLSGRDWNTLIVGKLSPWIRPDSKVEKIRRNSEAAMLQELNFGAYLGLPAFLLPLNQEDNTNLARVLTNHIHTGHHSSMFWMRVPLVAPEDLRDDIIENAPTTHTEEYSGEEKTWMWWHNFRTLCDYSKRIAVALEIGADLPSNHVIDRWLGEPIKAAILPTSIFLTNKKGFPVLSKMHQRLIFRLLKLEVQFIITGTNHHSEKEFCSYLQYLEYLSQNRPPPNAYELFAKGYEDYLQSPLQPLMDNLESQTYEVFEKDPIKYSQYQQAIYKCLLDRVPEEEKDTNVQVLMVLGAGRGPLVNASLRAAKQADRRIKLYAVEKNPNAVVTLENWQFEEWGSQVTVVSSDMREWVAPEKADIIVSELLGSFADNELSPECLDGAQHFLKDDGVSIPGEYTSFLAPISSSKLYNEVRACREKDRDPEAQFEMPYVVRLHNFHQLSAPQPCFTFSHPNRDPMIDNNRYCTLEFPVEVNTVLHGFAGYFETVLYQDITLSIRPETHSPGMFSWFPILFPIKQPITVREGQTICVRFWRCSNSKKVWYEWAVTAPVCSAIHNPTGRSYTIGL
One may read the IC50 as the concentration that inhibits the measured activity by half. Turning to `Nc1ncnc2c1c(Br)cn2[C@@H]1C[C@H](Oc2cc(Cl)cc3c2CNCC3)[C@@H](O)[C@H]1O` [US10709709, Example 131], the IC50 came to 1 nM.
To `Cc1ncnc2c1ccn2[C@@H]1C[C@H](Oc2cc(C(F)F)cc3c2CNCCO3)[C@@H](O)[C@H]1O` [US10709709, Example 205] belongs 1 nM; to `Cc1cc2c(c(O[C@H]3C[C@@H](n4ccc5c(C)ncnc54)[C@H](O)[C@@H]3O)c1)CNCCO2` [US10709709, Example 206], 2 nM.

(Values after BindingDB's records for patent US10709709 (Pfizer Inc., 2020).)
